Measurements published in ChEMBL document CHEMBL3872201, “Synthesis and antiproliferative activity of a natural like glycoconjugate polycyclic compound” (2016).
The source made the active and inactive calls. The calls are words filed in the database; no cut-off is given here.

Tests used:
MDA-MB-231 [1] = experiment: Cytotoxicity against human MDA-MB-231 cells assessed as inhibition of cell viability at 5 to 10 uM up to 72 hrs by MTT assay; format: functional, cell-based
[2] = Antiproliferative activity against human MCF7 cells after 48 hrs by sulforhodamine B assay; format: functional; conditions: MCF7, 48 h
[3] = Cell cycle arrest in human MDA-MB-231 cells assessed as accumulation at G2/M phase at 5 uM after 24 hrs by propidium iodide staining based flow cytometric analysis (reference value: 20.4%); format: functional
[4] = Antiproliferative activity against human SK-MEL-2 cells after 48 hrs by sulforhodamine B assay; format: functional; conditions: SK-MEL-2, 48 h
[5] = Antiproliferative activity against human CCRF-CEM cells after 48 hrs by sulforhodamine B assay; format: functional
[6] = Antiproliferative activity against human NCI-H226 cells after 48 hrs by sulforhodamine B assay; format: functional; conditions: NCI-H226, 48 h
MDA-MB-231 [7] = experiment: Effect on cell cycle regulatory protein in human MDA-MB-231 cells assessed as cyclin B1 level at 5 uM after 24 hrs by Western blot analysis relative to control; format: functional
MDA-MB-231 [8] = experiment: Effect on cell cycle regulatory protein in human MDA-MB-231 cells assessed as p21 level at 10 uM after 48 hrs by Western blot analysis relative to control; format: functional
[9] = Cell cycle arrest in human MDA-MB-231 cells assessed as accumulation at G2/M phase after 96 to 120 hrs by propidium iodide staining based flow cytometric analysis; format: functional
MDA-MB-231 [10] = experiment: Effect on cell cycle regulatory protein in human MDA-MB-231 cells assessed as cdc2 level at 10 uM after 48 hrs by Western blot analysis relative to control; format: functional
MDA-MB-231 [11] = experiment: Effect on cell cycle regulatory protein in human MDA-MB-231 cells assessed as cdc2 level at 10 uM after 24 hrs by Western blot analysis relative to control; format: functional
[12] = Antiproliferative activity against human MOLT4 cells after 48 hrs by sulforhodamine B assay; format: functional; conditions: MOLT-4, 48 h
[13] = Antiproliferative activity against human RPMI8226 cells after 48 hrs by sulforhodamine B assay; format: functional; conditions: RPMI-8226, 48 h
[14] = Cell cycle arrest in human MDA-MB-231 cells assessed as accumulation at subG0/G1 phase at 5 uM after 48 hrs by propidium iodide staining based flow cytometric analysis (reference value: 8.8%); format: functional
[15] = Antiproliferative activity against human T47D cells after 48 hrs by sulforhodamine B assay; format: functional
[16] = Antiproliferative activity against human OVCAR8 cells after 48 hrs by sulforhodamine B assay; format: functional; conditions: OVCAR-8, 48 h
[17] = Antiproliferative activity against human HCT15 cells after 48 hrs by sulforhodamine B assay; format: functional; conditions: HCT-15, 48 h
[18] = Cytotoxicity against human MDA-MB-231 cells assessed as inhibition of cell viability at 10 uM after 24 hrs by MTT assay relative to control; format: functional; conditions: MDA-MB-231, 24 h
MDA-MB-231 [19] = experiment: Effect on cell cycle regulatory protein in human MDA-MB-231 cells assessed as cyclin B1 level at 10 uM after 24 hrs by Western blot analysis relative to control; format: functional
[20] = Antiproliferative activity against human NCI-H522 cells after 48 hrs by sulforhodamine B assay; format: functional; conditions: NCI-H522, 48 h
[21] = Antiproliferative activity against human SK-MEL-5 cells after 48 hrs by sulforhodamine B assay; format: functional; conditions: SK-MEL-5, 48 h
[22] = Antiproliferative activity against human NCI-H322M cells after 48 hrs by sulforhodamine B assay; format: functional
MDA-MB-231 [23] = experiment: Effect on cell cycle regulatory protein in human MDA-MB-231 cells assessed as cyclin B1 level at 10 uM after 48 hrs by Western blot analysis relative to control; format: functional
[24] = Antiproliferative activity against human RXF393 cells after 48 hrs by sulforhodamine B assay; format: functional; conditions: RXF 393, 48 h
[25] = Cell cycle arrest in human MDA-MB-231 cells assessed as accumulation at G2/M phase at 10 uM after 24 hrs by propidium iodide staining based flow cytometric analysis (reference value: 20.4%); format: functional
[26] = Antiproliferative activity against human UO31 cells after 48 hrs by sulforhodamine B assay; format: functional; conditions: UO-31, 48 h
[27] = Cell cycle arrest in human MDA-MB-231 cells assessed as accumulation at subG0/G1 phase at 10 uM after 24 hrs by propidium iodide staining based flow cytometric analysis (reference value: 7.6%); format: functional
[28] = Cell cycle arrest in human MDA-MB-231 cells assessed as accumulation at G2/M phase at 10 uM after 72 hrs by propidium iodide staining based flow cytometric analysis (reference value: 19.7%); format: functional
MDA-MB-231 [29] = experiment: Cytotoxicity against human MDA-MB-231 cells assessed as inhibition of cell viability after 48 hrs by MTT assay relative to control; format: functional, cell-based
[30] = Cell cycle arrest in human MDA-MB-231 cells assessed as accumulation at G2/M phase at 10 uM after 48 hrs by propidium iodide staining based flow cytometric analysis (reference value: 19.5%); format: functional
MDA-MB-231 [31] = experiment: Cytotoxicity against human MDA-MB-231 cells assessed as reduction in cell number at 5 to 10 uM after 24 to 72 hrs by light microscopic analysis; format: functional, cell-based
[32] = Antiproliferative activity against human ACHN cells after 48 hrs by sulforhodamine B assay; format: functional
[33] = Cell cycle arrest in human MDA-MB-231 cells assessed as accumulation at subG0/G1 phase at 10 uM after 72 hrs by propidium iodide staining based flow cytometric analysis (reference value: 6.3%); format: functional
[34] = Cytotoxicity against human MDA-MB-231 cells assessed as inhibition of cell viability at 5 uM after 48 hrs by MTT assay relative to control; format: functional; conditions: MDA-MB-231, 48 h
[35] = Antiproliferative activity against human PC3 cells after 48 hrs by sulforhodamine B assay; format: functional; conditions: PC-3, 48 h
[36] = read-out: LC50 (the source's name)

With `C=C1c2c(C)nn(-c3ccc(C#CCO[C@@H]4O[C@H](CO)[C@@H](O)[C@H](O)[C@H]4O)cc3)c2N(C)C23CC1C1(C)c4c(C)nn(-c5ccc(C#CCO[C@@H]6O[C@H](CO)[C@@H](O)[C@H](O)[C@H]6O)cc5)c4N(C)C(C)(CC12)C3` (stereo partly specified) the inhibition (MDA-MB-231 [1]) was “Active”, the GI50 [2] was 1.38 µM and the TGI [2] was 3.2 µM. It also gave a CC50 [2, 36] of 7.42 µM, an Activity [3] of 24.4% and a GI50 [4] of 1.76 µM. It also gave a TGI [4] of 3.39 µM, a CC50 [4, 36] of 6.55 µM and a GI50 [5] of 1.04 µM. For the same compound, the TGI [5] was 5.03 µM, the CC50 [5, 36] was > 100 µM and the GI50 [6] was 1.62 µM. For the same compound, the TGI [6] was 3.7 µM, the CC50 [6, 36] was 8.46 µM and the “fold change (FC)” value (MDA-MB-231 [7]) was 0.9. The “fold change (FC)” value (MDA-MB-231 [8]) was 2, the Activity [9] was “Active” and the “fold change (FC)” value (MDA-MB-231 [10]) was 0.3. For the same compound, the “fold change (FC)” value (MDA-MB-231 [11]) was 0.8, the GI50 [12] was 1.28 µM and the TGI [12] was 3.88 µM. It also gave a CC50 [12, 36] of 100 µM, a GI50 [13] of 0.29 µM and a TGI [13] of 1.72 µM. For the same compound, the CC50 [13, 36] was 100 µM, the Activity [14] was 2.1% and the GI50 [15] was 0.68 µM. It also gave a TGI [15] of 6.8 µM, a CC50 [15, 36] of 100 µM and a GI50 [16] of 1 µM. For the same compound, the TGI [16] was 3.84 µM, the CC50 [16, 36] was 55.1 µM and the GI50 [17] was 1.57 µM. The TGI [17] was 3.45 µM, the inhibition at 10 µM [18] was 80% and the “fold change (FC)” value (MDA-MB-231 [19]) was 0.7. The GI50 [20] was 1.67 µM, the TGI [20] was 3.26 µM and the CC50 [20, 36] was 6.37 µM. The GI50 [21] was 1.38 µM, the TGI [21] was 2.71 µM and the CC50 [21, 36] was 5.31 µM. For the same compound, the GI50 [22] was 1.76 µM, the TGI [22] was 3.75 µM and the CC50 [22, 36] was 8.01 µM. The “fold change (FC)” value (MDA-MB-231 [23]) was 0.5, the GI50 [24] was 1.62 µM and the TGI [24] was 3.52 µM. It also gave a CC50 [24, 36] of 7.63 µM, an Activity [25] of 36.6% and a GI50 [26] of 2.83 µM. The TGI [26] was 10.1 µM, the CC50 [26, 36] was 31.8 µM and the Activity [27] was 2.2%. For the same compound, the Activity [28] was 31.1%, the inhibition (MDA-MB-231 [29]) was “Dose-dependent effect” and the Activity [30] was 31.1%. For the same compound, the Activity (MDA-MB-231 [31]) was “Active”, the GI50 [32] was 2.42 µM and the TGI [32] was 10.6 µM. For the same compound, the CC50 [32, 36] was 32.5 µM, the Activity [33] was 1.6% and the inhibition at 5 µM [34] was 68%. It also gave a GI50 [35] of 0.7 µM, a TGI [35] of 2.56 µM and a CC50 [35, 36] of 7.79 µM.
